Results from ChEMBL document CHEMBL3526058, “Investigating the enteroenteric recirculation of apixaban, a factor Xa inhibitor: administration of activated charcoal to bile duct-cannulated rats and dogs receiving an intravenous dose and use of drug transporter knockout rats” (Drug Metab Dispos, 2013).

Key:
[1] = Plasma concentration in beagle dog at 5 mg/kg, po at 8 hrs; type: ADME, organism-based, Canis lupus familiaris; design: dose 5 mg/kg, route oral
[2] = Oral steady-state volume of distribution in beagle dog at 5 mg/kg; type: ADME, organism-based, Canis lupus familiaris; design: dose 5 mg/kg; conditions: in vivo, read-out: Vss/F
[3] = Mean residence time in beagle dog at 5 mg/kg, po followed by activated charcoal administration 0.25 hrs post compound dosing; type: ADME, organism-based, Canis lupus familiaris; design: dose 5 mg/kg, route oral; conditions: in vivo
[4] = AUC (0 to 24 hrs) in beagle dog at 5 mg/kg, po followed by activated charcoal administration 1 hr post compound dosing; type: ADME, organism-based, Canis lupus familiaris; design: time < 24 hr, dose 5 mg/kg, route oral; conditions: plasma
[5] = Half life in wild-type Sprague-Dawley rat at 4 mg/kg, po; type: ADME, organism-based; design: dose 4 mg/kg, route oral; conditions: in vivo
[6] = AUC (0 to infinity) in BCRP-knockout Sprague-Dawley rat at 4 mg/kg, po; type: ADME, organism-based; design: time infinity, dose 4 mg/kg, route oral; conditions: plasma
[7] = AUC (0 to 24 hrs) in beagle dog at 5 mg/kg, po; type: ADME, organism-based, Canis lupus familiaris; design: time < 24 hr, dose 5 mg/kg, route oral; conditions: plasma
[8] = Oral bioavailability in BCRP-knockout Sprague-Dawley rat at 4 mg/kg; type: ADME, organism-based; conditions: in vivo
[9] = AUC (0 to infinity) in P-gp-knockout Sprague-Dawley rat at 4 mg/kg, po; type: ADME, organism-based; design: time infinity, dose 4 mg/kg, route oral; conditions: plasma
[10] = Cmax in beagle dog at 5 mg/kg, po; type: ADME, organism-based, Canis lupus familiaris; design: dose 5 mg/kg, route oral; conditions: in vivo
[11] = AUC (0 to infinity) in Sprague-Dawley rat at 4 mg/kg, po administered 1 hr post GF-120918 treatment; type: ADME, organism-based; design: time infinity, dose 4 mg/kg, route oral; conditions: plasma, with GF-120918
[12] = Half life in BCRP-knockout Sprague-Dawley rat at 4 mg/kg, po; type: ADME, organism-based; design: dose 4 mg/kg, route oral; conditions: in vivo
[13] = Half life in beagle dog at 5 mg/kg, po; type: ADME, organism-based, Canis lupus familiaris; design: dose 5 mg/kg, route oral; conditions: in vivo
[14] = Oral steady-state volume of distribution in wild-type Sprague-Dawley rat at 4 mg/kg; type: ADME, organism-based; design: dose 4 mg/kg; conditions: in vivo, read-out: Vss/F
[15] = Oral bioavailability in beagle dog at 5 mg/kg followed by activated charcoal administration 0.25 hrs post compound dosing; type: ADME, organism-based, Canis lupus familiaris; conditions: in vivo
[16] = Apparent oral clearance in P-gp-knockout Sprague-Dawley rat at 4 mg/kg, po; type: ADME, organism-based; design: dose 4 mg/kg, route oral; conditions: in vivo
[17] = Mean residence time in beagle dog at 5 mg/kg, po; type: ADME, organism-based, Canis lupus familiaris; design: dose 5 mg/kg, route oral; conditions: in vivo
[18] = Mean residence time in beagle dog at 5 mg/kg, po followed by activated charcoal administration 3 hrs post compound dosing; type: ADME, organism-based, Canis lupus familiaris; design: dose 5 mg/kg, route oral; conditions: in vivo
[19] = Apparent oral clearance in wild-type Sprague-Dawley rat at 4 mg/kg, po; type: ADME, organism-based; design: dose 4 mg/kg, route oral; conditions: in vivo
[20] = Plasma concentration in beagle dog at 5 mg/kg, po followed by activated charcoal administration 0.25 hrs post compound dosing measured at 8 hrs; type: ADME, organism-based, Canis lupus familiaris; design: dose 5 mg/kg, route oral
[21] = Oral bioavailability in beagle dog at 5 mg/kg followed by activated charcoal administration 3 hrs post compound dosing; type: ADME, organism-based, Canis lupus familiaris; conditions: in vivo
[22] = Oral steady-state volume of distribution in beagle dog at 5 mg/kg followed by activated charcoal administration 0.25 hrs post compound dosing; type: ADME, organism-based, Canis lupus familiaris; design: dose 5 mg/kg; conditions: in vivo, read-out: Vss/F
[23] = Apparent oral clearance in BCRP-knockout Sprague-Dawley rat at 4 mg/kg, po; type: ADME, organism-based; design: dose 4 mg/kg, route oral; conditions: in vivo
[24] = Oral bioavailability in Sprague-Dawley rat at 4 mg/kg administered 1 hr post GF-120918 treatment; type: ADME, organism-based; conditions: in vivo, with GF-120918
[25] = AUC (0 to infinity) in wild-type Sprague-Dawley rat at 4 mg/kg, po; type: ADME, organism-based; design: time infinity, dose 4 mg/kg, route oral; conditions: plasma
[26] = Plasma concentration in beagle dog at 5 mg/kg, po followed by activated charcoal administration 1 hr post compound dosing measured at 8 hrs; type: ADME, organism-based, Canis lupus familiaris; design: dose 5 mg/kg, route oral
[27] = Cmax in beagle dog at 5 mg/kg, po followed by activated charcoal administration 3 hrs post compound dosing; type: ADME, organism-based, Canis lupus familiaris; design: dose 5 mg/kg, route oral; conditions: in vivo
[28] = organism: Homo sapiens; test: Plasma clearance in human relative to hepatic blood flow; type: ADME, organism-based; conditions: in vivo
[29] = Half life in beagle dog at 5 mg/kg, po followed by activated charcoal administration 1 hr post compound dosing; type: ADME, organism-based, Canis lupus familiaris; design: dose 5 mg/kg, route oral; conditions: in vivo
[30] = Apparent oral clearance in beagle dog at 5 mg/kg, po followed by activated charcoal administration 1 hr post compound dosing; type: ADME, organism-based, Canis lupus familiaris; design: dose 5 mg/kg, route oral; conditions: in vivo
[31] = Cmax in beagle dog at 5 mg/kg, po followed by activated charcoal administration 0.25 hrs post compound dosing; type: ADME, organism-based, Canis lupus familiaris; design: dose 5 mg/kg, route oral; conditions: in vivo
[32] = Mean residence time in BCRP-knockout Sprague-Dawley rat at 4 mg/kg, po; type: ADME, organism-based; design: dose 4 mg/kg, route oral; conditions: in vivo
[33] = Oral bioavailability in P-gp-knockout Sprague-Dawley rat at 4 mg/kg; type: ADME, organism-based; conditions: in vivo

concentration at 8 h [1]: 5230 ng/mL
Vd/F [2]: 0.5 L/kg
MRT [3]: 6.4 h
AUC(0-t) at 24 h [4]: 63900 ng·h/mL
half-life [5]: 3.3 h
AUC(0-inf) [6]: 5710 ng·h/mL
AUC(0-t) at 24 h [7]: 78600 ng·h/mL
bioavailability [8]: 122%
AUC(0-inf) [9]: 3340 ng·h/mL
Cmax [10]: 9350 ng/mL
AUC(0-inf) [11]: 6570 ng·h/mL
half-life [12]: 2.5 h
half-life [13]: 5.7 h
Vd/F [14]: 5.8 L/kg
bioavailability [15]: 92%
CL/F [16]: 10 mL/min/kg
MRT [17]: 8.5 h
MRT [18]: 5.3 h
CL/F [19]: 25 mL/min/kg
concentration at 8 h [20]: 2820 ng/mL
bioavailability [21]: 77%
Vd/F [22]: 0.5 L/kg
CL/F [23]: 6.67 mL/min/kg
bioavailability [24]: 140%
AUC(0-inf) [25]: 1390 ng·h/mL
concentration at 8 h [26]: 3380 ng/mL
Cmax [27]: 8070 ng/mL
CL [28]: < 5%
half-life [29]: 4 h
CL/F [30]: 1.28 mL/min/kg
Cmax [31]: 8420 ng/mL
MRT [32]: 2.9 h
bioavailability [33]: 71%
Compound: COc1ccc(-n2nc(C(N)=O)c3c2C(=O)N(c2ccc(N4CCCCC4=O)cc2)CC3)cc1
